Results: patent publication US20240374739A1, “BILE ACID CONJUGATE” (Curtin University, priority 2021, published 2024)

Columns and labels:
OC-1 cells [1] = test: Cobalt chloride hypoxia assay; assay type: cell-based; settings: cells pre-treated with CoCl2 at 100 μM for 24 hours, microscopic examination
Protocol: This assay is used to determine whether an intervention can reverse hypoxic-induced cell death brought about by cobalt chloride. For this assay, cells are pre-treated with CoCl2 at 100 μM for 24 hours, followed by microscopic examination of cell morphology and viability.

Caspase 3/9 protein = test: Caspase assay; assay type: cell-based; settings: OC-1 cells under stressful, toxic conditions (FIG. 31)
Protocol: The caspase assay was carried as per manufacturer's instructions (abcam, NSW, Australia), as described below.
• Collagen coated cover slip • Fixing agent: 4% paraformaldehyde • Permeabilization agent 0.5% of Tween 20 or trition-X 100 diluted in PBS • Blocking: 1% BSA in PBST may also be used. • PBST: 0.1% Tween 20 in PBS • Primary abs (1:500 in PBS) • Secondary abs (1:1000 in PBS) • Hoechst (Nuclear stain)
First day: Fixation, permeabilize, blocking and add a primary antibody to the cells, as described below:
• Start by aspirating culture medium from each well followed by fixation of the cells with 4% Using 4% paraformaldehyde in PBS pH 7.4 for 10 min at room temperature. (Add one ml in each well). • Shake a plate for a few seconds.
0.5% of Tween 20 or trition-X 100 diluted in PBS. […]
• Make coverslips ready to be mounted onto microscope slides. • Take a clean slide and dispense one drop of antifade mounting medium by slowly from the pipette into the slide. • Carefully remove a coverslip from the well and allow excess wash to drip off and place the cells face down onto the slide. • Clear fingernail polish can be used to seal the coverslip and prevent it from drying out. • Visualized slide under microscope. […]

OC-1 cells [2] = test: Seahorse bioenergetics experiment (oxygen consumption rate) after cisplatin; assay type: cell-based
Protocol: Mitochondrial function was analysed by measuring oxygen consumption rate (OCR) using real-time Seahorse Flux Analyser XF 96 (Seahorse Bioscience, USA) with our well-established method (Kovacevic, Bozica, et al. “Novel hydrogel comprising non-ionic copolymer with various concentrations of pharmacologically active bile acids for cellular injectable gel.” Colloids and Surfaces B: Biointerfaces (2022): 113014). Briefly, the first injection was with media without glucose, with subsequent ATP synthase inhibitor oligomycin and FCCP (carbonyl cyanide-p-trifluoromethoxy phenylhydrazone) and the final injection was complex […] inhibitors Rotenone+antimycin A 77. The result was automatically generated and analysed by the wave software. The OC-1 cells were pre-treated with cisplatin at three different concentrations (20, 30 and 40 μM) for 24 or 48 hours to induce cytotoxicity prior to the seahorse bioenergetics assays.

[3] = system: Neurodegenerated cells (Parkinson's disease model); test: Gene expression analysis by qRT-PCR for neuronal, dopaminergic and PD associated markers; assay type: cell-based, human; settings: 24 hours drug treatment
Protocol: (§1) Perinatal tissue derived human stem cell model for Parkinson's disease (PD) was prepared using proprietary protocols to test the effect of new drug entities. Drug treatment was for 24 hours in all the assays.
Gene expression levels of mature neuronal marker (Synapsin I), dopaminergic markers (Nuclear receptor related 1 (Nurr1), Dopamine transporter (DAT) and Tyrosine hydroxylase (TH)), and PD associated marker (α-synuclein) were analysed to determine the effect of probucol, SPQ, HA-1 and L-Dopa.
(A) Synapsin I, (B) Nurr1, (C) DAT, (D) TH and (E) α-synuclein. (p<0.05; *p<0.05, **p<0.001, ***p<0.0001, n=3).

[4] = system: Neurodegenerated cells (Parkinson's disease model); test: Immunocytochemical localization of PD specific and neuronal markers; assay type: cell-based, human; settings: fluorescence micrographs
Protocol: as §1
For further confirmation and protein localization of neuronal, dopaminergic and PD specific neurodegenerative markers, we performed immunolocalization for synapsin I, Nurr1, TH and α-synuclein respectively.
Fluorescence micrographs of synapsin 1 positive neuronal cells were obtained and the effects of probucol, SPQ and HA-1 on neurodegeneration model with L-Dopa as positive control were compared.
Fluorescence micrographs of Nurr1 positive dopaminergic neuronal cells were obtained and the effects of probucol, SPQ and HA-1 on neurodegeneration model with L-Dopa as positive control were compared.
Fluorescence micrographs of TH positive dopaminergic neuronal cells were obtained and the effects of probucol, SPQ and HA-1 on neurodegeneration model with L-Dopa as positive control were compared.
Fluorescence micrographs of α-synuclein immunolocalization were obtained and the effects of probucol, SPQ and HA-1 on neurodegeneration model with L-Dopa as positive control were compared.

[5] = system: Neurodegenerated cells (perinatal tissue derived human stem cell model for Parkinson's disease); test: Mitochondrial membrane potential by TMRE assay, Parkinson's disease model; assay type: cell-based; settings: PD model; probucol 20 μM, SPQ 10 μM, HA-1 10 μM, L-Dopa 50 μM, 24 hours
Protocol: as §1
Dysfunctional mitochondria and alterations in the mitochondrial membrane potential promote neurodegeneration seen in Parkinson's disease. For assessing the changes in mitochondrial membrane potential, we used TMRE (tetramethylrhodamine ethyl ester) to quantify the changes in live cells by fluorimetry.
(§2) Neurodegenerated cells were incubated with probucol (20 μM), SPQ (10 μM), HA-1 (10 μM) and L-Dopa (50 μM) for 24 hours (p<0.05; *p<0.05, **p<0.001, ***p<0.0001, ns=non-significant, n=3).

[6] = system: Neurodegenerated cells (Parkinson's disease model); test: Greiss (nitric oxide) assay, Parkinson's disease model; assay type: cell-based, human; settings: PD model
Protocol: as §1
(§3) Increase in oxidative stress associated with accumulation of α-synuclein plays a central role in disease progression. Nitric oxide enhances the aggregation of α-synuclein and accelerates disease progression. Increased oxidative stress and nitric oxide levels lead to apoptosis and evoke cytotoxic effects on neurons.

[7] = system: Neurodegenerated cells (Parkinson's disease model); test: ROS assay, Parkinson's disease model; assay type: cell-based, human; settings: PD model
Protocol: as §1, §3

[8] = system: Neurodegenerated cells (Parkinson's disease model); test: Adenosine triphosphate (ATP) assay, Parkinson's disease model; assay type: cell-based, human; settings: PD model; probucol 20 μM, SPQ 10 μM, HA-1 10 μM, L-Dopa 50 μM, 24 hours
Protocol: as §1
Impaired energy metabolism and reduced ATP levels are common features of PD. Using the stem cell derived PD model, we measured ATP levels in drug treated (probucol, SPQ and HA-1 and L-Dopa) cells and compared with neurodegenerated (ND) cells.
as §2

[9] = system: Neurodegenerated cells (Parkinson's disease model); test: Glutathione peroxidase / GSH activity, Parkinson's disease model; assay type: cell-based, human; settings: PD model; vs neurodegeneration
Protocol: as §1
Parkinson's disease-related increase in oxidative stress is associated with mitochondrial dysfunction and subsequent decrease in the levels of brain antioxidant glutathione (GSH).
(Statistical analysis: Results are expressed in mean±SD. One-way ANOVA followed by Dunnett's post hoc test was performed to compare all columns vs neurodegeneration (p<0.05; *p<0.05, **p<0.001, ***p<0.0001, ns=non-significant, n=3).)

[10] = system: Neurodegenerated cells (Alzheimer's disease model); test: Greiss (nitric oxide) assay, Alzheimer's disease model; assay type: cell-based, human; settings: AD model
Protocol: (§4) Perinatal tissue derived human stem cell model for Alzheimer's disease (AD) was prepared using proprietary protocols to test the effect of new drug entities. Drug treatment was for 24 h in all the assays.
(§5) Increase in oxidative stress is associated with accumulation of amyloid beta seen in the AD model. Increased oxidative stress and nitric oxide levels lead to apoptosis and evoke cytotoxic effects on neurons.

[11] = system: Neurodegenerated cells (Alzheimer's disease model); test: Mitochondrial membrane potential by TMRE assay, Alzheimer's disease model; assay type: cell-based, human; settings: AD model; probucol 20 μM, SPQ 10 μM, HA-1 10 μM, rivastigmine 2 μM, 24 hours
Protocol: as §4
Aβ plaques are sources of toxicity that lead to severe structural and functional abnormalities in mitochondria in Alzheimer's disease. For assessing the changes in the electrophysiology and functional changes in the mitochondrial membrane potential, we used TMRE (tetramethylrhodamine ethyl ester) for quantifying changes in mitochondrial membrane potential in live cells by fluorimetry.

[12] = system: Neurodegenerated cells (Alzheimer's disease model); test: Immunocytochemical localization of AD specific and neuronal markers; assay type: cell-based, human; settings: fluorescence micrographs
Protocol: as §4
For further confirmation and protein localization of the AD specific neurodegenerative markers and neuronal markers, we performed immunolocalization for BACE1 and synapsin respectively.
Fluorescence micrographs of BACE1 positive neuronal cells were obtained and the effects of probucol, SPQ and HA-1 on neurodegeneration model were compared. […] In the AD model, as expected BACE1 accumulation is clearly pronounced.
In the case of synapsin 1, a disruption in expression of synapsin protein in ND cells was observed.

[13] = system: Neurodegenerated cells (perinatal tissue derived human stem cell model for Alzheimer's disease); test: Lactate dehydrogenase (LDH) assay, in vitro model of Alzheimer's disease; assay type: cell-based; settings: probucol 20 μM, SPQ 10 μM, HA-1 10 μM, rivastigmine 2 μM, 24 hours; compared to ND cells
Protocol: as §4
LDH leakage is a well characterised marker of cellular membrane damage and increase in indicative of lactate deficit, is a hallmark of AD.

[14] = system: Neurodegenerated cells (Alzheimer's disease model); test: ROS (reactive oxygen species) assay, Alzheimer's disease model; assay type: cell-based, human; settings: AD model
Protocol: as §4, §5

[15] = system: Neurodegenerated cells (Alzheimer's disease model); test: Gene expression analysis by qRT-PCR for neuronal, cholinergic and AD associated markers; assay type: cell-based, human; settings: 24 h drug treatment
Protocol: as §4
For determining the expression of genes involved in AD specific neurodegeneration and neuronal markers, we analysed BACE and chAT (AD and cholinergic markers) and synapsin 1 and neuropilin (neuronal markers).

[16] = system: Neurodegenerated cells (Alzheimer's disease model); test: Glutathione peroxidase / GSH activity, Alzheimer's disease model; assay type: cell-based, human; settings: AD model; vs neurodegeneration
Protocol: as §4
Alzheimer's disease-related increase in oxidative stress is associated with decrease in the levels of brain antioxidant glutathione (GSH).
(Statistical analysis: results are expressed in mean±SD. One-way ANOVA followed by Dunnett's post hoc test was performed to compare all columns vs neurodegeneration (p<0.05; *p<0.05, **p<0.001, ***p<0.0001, ns=non-significant, n=3).)

With `CC(=O)O[C@@H]1CC[C@@]2(C)C(C1)C[C@@H](OC(C)=O)[C@H]1[C@@H]3CC[C@H]([C@H](C)CCC(=O)Oc4c(C(C)(C)C)cc(SC(C)(C)Sc5cc(C(C)(C)C)c(O)c(C(C)(C)C)c5)cc4C(C)(C)C)[C@@]3(C)CC[C@@H]12` (stereo in doubt) [HA-2, 2,6-di-tert-butyl-4-((2-((3,5-di-tert-butyl-4-hydroxyphenyl)thio)propan-2-yl)thio)phenyl (4R)-4-[(3R,5R,7R,8R,9S,10S,13R,14S,17R)-3,7-diacetoxy-10,13-dimethyl-2,3,4,5,6,7,8,9,11,12,14,15,16,17-tetradecahydro-1H-cyclopenta[a]phenanthren-17-yl]pentanoate] the cell morphology (OC-1 cells [1]) was “optimal morphology”, the “protection against programmed cell death (caspase-3 activation) / viable cell population” value (Caspase 3/9 protein) was “least amount of cell death” and the “oxygen consumption rate (OCR)” value (OC-1 cells [2]; OC-1 cells after 24 hours exposure to cisplatin (20, 30 and 40 μM)) was “most potent in reversing the cisplatin-induced cytotoxicity”. The “oxygen consumption rate (OCR)” value (OC-1 cells [2]; OC-1 cells after 48 hours exposure to cisplatin (20, 30 and 40 μM)) was “significantly reverse the cytotoxic effects of cisplatin”.
`N[C@@H](Cc1ccc(O)c(O)c1)C(=O)O` [L-Dopa, Levodopa] was tested, and the “TH gene expression (qRT-PCR)” value [3] was “clearly upregulated”, the “accumulation of α-synuclein (immunolocalization)” value [4] was “least expression” and the “mitochondrial membrane potential (TMRE)” value [5] was “maintain the mitochondrial membrane potential”. For the same compound, the nitric oxide level [6] was “reduction of ROS and NO levels”, the “intracellular reactive oxidative stress (ROS)” value [7] was “reduction of ROS and NO levels” and the ATP level [8] was “Enhanced increase in ATP levels”. For the same compound, the “glutathione (GSH) activity” value [9] was “increase in the GSH activity”.
With `CCN(C)C(=O)Oc1cccc([C@H](C)N(C)C)c1` [rivastigmine] the nitric oxide level [10] was “reduction of ROS and NO levels”, the “mitochondrial membrane potential (TMRE)” value [11] was “maintain the mitochondrial membrane potential” and the “accumulation of BACE1 protein (immunolocalization)” value [12] was “least expression”. For the same compound, the “LDH activity / LDH release” value [13] was “decreased significantly LDH activity”, the “intracellular reactive oxidative stress (ROS)” value [14] was “reduction of ROS and NO levels” and the “BACE1 gene expression (qRT-PCR)” value [15] was “decrease the level of beta secretase 1 (BACE1)”. For the same compound, the “ChAT gene expression (qRT-PCR)” value [15] was “increase the level of choline acetyltransferase (ChAT)” and the “glutathione (GSH) activity” value [16] was “increase in the anti-oxidant GSH activity”.
